Test results from patent publication US20230030607A1, “Novel oxygen pulse therapy method for treating COVID19 and viral, bacterial, fungal or parasitic respiratory and other diseases” (priority 2021, published 2023).
Several values for one entry are separate records, joined by “and”; a condition that tells them apart may be missing. Equal entries are not always repeated.

Columns and labels:
COVID-19 [1] = conditions: in vivo; cited from earlier work
COVID-19 [2] = conditions: hospitalized patients; cited from earlier work
SARS-CoV-2 [3] = conditions: human, in vivo
SARS-CoV-2 [4] = test system: SARS-CoV-2

| Molecule | benefit for treatment of COVID-19 (COVID-19 [1]) | effect on 28-day mortality or the in-hospital course of COVID-19 (COVID-19 [2]) | infection for COVID 19 at follow-up (SARS-CoV-2 [3]) | use of the therapy in respiratory diseases including SARS-COVID19 infections (SARS-CoV-2 [4]; elders, adults and children, most of them immune depressed patients) | new infection for COVID 19 at follow-up (SARS-CoV-2 [4]; human, in vivo) | time to recovery (SARS-CoV-2 [4]; human, in vivo) |
| --- | --- | --- | --- | --- | --- | --- |
| CCN(CCO)CCCC(C)Nc1ccnc2cc(Cl)ccc12 (stereo not shown) [hydroxychloroquine] | not been shown to offer any benefit | little or no effect | – | – | – | – |
| O=O [oxygen] | – | – | no infection for COVID 19 has been developed | satisfactory used | no new infection for COVID 19 has developed | 5 days and 3 days |
| lopinavir/ritonavir | – | little or no effect | – | – | – | – |
